How the values were obtained:
ICR female mice = test: Acute toxicity, single oral dose in mice; details: mouse, in vivo
Protocol: The aromatic compounds of the formula (I) according to the present invention were orally administered to mice at the dose of 500 mg/kg, but no fatalities were observed over a period of one week.
Five-week-old ICR female mice (5 mice per group) were bred for acclimation for a week. Then, the compounds of the present invention were dissolved in water, and orally administered to the mice in a single dosage (500 mg/kg).

[1] = system: kidney disease model rats; test: Action to lower blood pressure in kidney disease model rats (tail cuff); assay type: in vivo, Sprague-Dawley female rats; details: systolic, average of 8 rats, 20 mg/kg with drinking water, two days after administration; control 210
[2] = system: kidney disease model rats; test: Survival time of kidney diseased animals; assay type: in vivo, Sprague-Dawley female rats; details: 20 mg/kg/day with drinking water, observation period eight weeks (upper limit); control 5.0
[3] = target: T1, angiotensin II receptor subtype 2 (AT2) (Bos taurus, UniProt G5E6F7); test: Binding to receptors: angiotensin II receptor subtype 2 (AT2); details: bovine cerebellar cortex, tracer 125I-Tyr4-angiotensin II
T1 construct: receptor : from cerebellar cortex in bovine; from tissue; host or cells: bovine cerebellar cortex
T1 sequence (G5E6F7 1-362): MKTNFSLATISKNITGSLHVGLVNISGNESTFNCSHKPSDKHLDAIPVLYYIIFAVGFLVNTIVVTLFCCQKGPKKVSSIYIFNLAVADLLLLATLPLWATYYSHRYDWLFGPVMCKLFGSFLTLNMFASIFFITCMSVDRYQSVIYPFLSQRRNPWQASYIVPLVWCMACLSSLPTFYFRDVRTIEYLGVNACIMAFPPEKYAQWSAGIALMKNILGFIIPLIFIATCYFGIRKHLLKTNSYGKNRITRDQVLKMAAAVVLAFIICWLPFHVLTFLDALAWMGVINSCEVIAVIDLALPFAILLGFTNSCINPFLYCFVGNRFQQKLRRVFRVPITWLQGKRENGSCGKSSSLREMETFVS
Protocol: In this Example, the affinity to the angiotensin II receptor subtype 1 or subtype 2 was evaluated by a binding assay in accordance with the method described in Biochem. Pharmacol., 33, 4057-4062 (1984).
Specifically, the measurement of the total binding in the presence of each drug was performed as follows:
A mixture (final volume=0.25 ml) of a drug in a given concentration (the drug was dissolved in DMSO, and diluted to a double volume with a buffer attached to a drug discovery system to prepare a sample for the assay; 0.025 ml), a tracer (0.025 ml), and receptors (0.2 ml) was incubated [in the case of the angiotensin II receptor subtype 1 (AT1), at room temperature for 3 hours, and in the case of the subtype 2 (AT2), at 37° C. for 1 hour]. Then, the reaction mixture was filtered with suction (GF/C filter was used in AT1, and GF/B filter was used in AT2). The filter papers after filtration with suction (the tracer bound to the receptors) were counted by a γ-well counter (ARC-500, Aloka). The non-specific bindings were measured by repeating the above method, except that a large excess amount of a displacer was added. The specific binding of the drug in the given concentration was calculated by subtracting the non-specific binding from the total binding, respectively.
In AT1 and AT2, the percentages found to inhibit the bindings of radioactive ligands (tracer) to receptors by the drugs to be tested (IC50 value of concentration to show 50% inhibition, or binding inhibition % in 100 μM) were measured, using the drugs to be tested and control drugs in the given concentration.
receptor : from cerebellar cortex in bovine
tracer : ^125 ITyr^4angiotensin II
control drug : angiotensin II (human)
(displacer) : angiotensin II (human)

[4] = system: kidney disease model rats; test: Renal function indicatory value in kidney disease model rats; assay type: in vivo, Sprague-Dawley female rats; details: 20 mg/kg/day with drinking water, six weeks; for Creatinine clearance: 24 hours urine, control 0.22; for Creatinine / Blood urea nitrogen: serum; for Creatinine: control 2.0; for Blood urea nitrogen: control 100

| Compound | Number of deaths/number of survivals (ICR female mice) | Blood Pressure [1] | Average survival time [2] | inhibition at 100 µM [3] | Creatinine clearance [4] | Creatinine [4] | Blood urea nitrogen [4] |
| --- | --- | --- | --- | --- | --- | --- | --- |
| CCCCC(=O)N(Cc1ccc(C(=O)OCCN(C)C)cc1)c1cc(C(=O)N2CCOCC2)ccc1N(C)C [Compound No. 1, 4-dimethylamino-3-N-[[[4-(2'-dimethylaminoethoxycarbonyl)phenyl]methyl]valeramido]benzoic acid morpholide] | 0/5 | 205 mmHg | 7.5 weeks | 16% | 0.47 mL/min | 1.2 mg/dL | 62 mg/dL |
| CCCCCCC(=O)N(Cc1ccc(C(=O)O)cc1)c1cc(C(=O)N2CCN(CCC)CC2)ccc1N(C)C [Compound No. 12, 4-dimethylamino-3-N-[[(4-carboxyphenyl)methyl]n-heptanamido]benzoic acid 4'-n-propyl piperazide] | 0/5 | 202 mmHg | 7.0 weeks | 0% | 0.35 mL/min | 1.3 mg/dL | 80 mg/dL |

From patent US5863913A, “Aromatic compound and pharmaceutical composition” (Kureha Chemical Industry Co., Ltd., priority 1996, dated 1999)
